Legend:
BRSK2 = BRSK2 (Homo sapiens, UniProt Q8IWQ3); conditions: 1 µM, ATP at Km
CAMKIV = CAMKIV (Homo sapiens, UniProt Q16566); conditions: 1 µM, ATP at Km
CDK5/P25 = CDK5/P25 (Homo sapiens, UniProt Q00535); conditions: 1 µM, ATP at Km
CDK7/CYCLINH/MAT1 = CDK7/CYCLINH/MAT1 (Homo sapiens, UniProt P50613); conditions: 1 µM, ATP at Km
CHK1 = CHK1 (Homo sapiens, UniProt O14757); conditions: 1 µM, ATP at Km
CK2ALPHA2 = CK2ALPHA2 (Homo sapiens, UniProt P19784); conditions: 1 µM, ATP at Km
EEF-2K = EEF-2K (Homo sapiens, UniProt O00418); conditions: 1 µM, ATP at Km
EPHA1 = EPHA1 (Homo sapiens, UniProt P21709); conditions: 1 µM, ATP at Km
EPHA2 = EPHA2 (Homo sapiens, UniProt P29317); conditions: 1 µM, ATP at Km
EPHA7 = EPHA7 (Homo sapiens, UniProt Q15375); conditions: 1 µM, ATP at Km
EPHB2 = EPHB2 (Homo sapiens, UniProt P29323); conditions: 1 µM, ATP at Km
EPHB4 = EPHB4 (Homo sapiens, UniProt P54760); conditions: 1 µM, ATP at Km
ERBB4 = ERBB4 (Homo sapiens, UniProt Q15303); conditions: 1 µM, ATP at Km
FGFR3 = FGFR3 (Homo sapiens, UniProt P22607); conditions: 1 µM, ATP at Km
FMS = FMS (Homo sapiens, UniProt P07333); conditions: 1 µM, ATP at Km
HIPK1 = HIPK1 (Homo sapiens, UniProt Q86Z02); conditions: 1 µM, ATP at Km
ITK = ITK (Homo sapiens, UniProt Q08881); conditions: 1 µM, ATP at Km
MAPK2 = MAPK2 (Homo sapiens, UniProt P28482); conditions: 1 µM, ATP at Km
MET = MET (Homo sapiens, UniProt P08581); conditions: 1 µM, ATP at Km
MKK7BETA = MKK7BETA (Homo sapiens, UniProt O14733); conditions: 1 µM, ATP at Km
MST3 = MST3 (Homo sapiens, UniProt Q9Y6E0); conditions: 1 µM, ATP at Km
PDK1 = PDK1 (Homo sapiens, UniProt O15530); conditions: 1 µM, ATP at Km
PKCIOTA = PKCIOTA (Homo sapiens, UniProt P41743); conditions: 1 µM, ATP at Km
PKCMU = PKCMU (Homo sapiens, UniProt Q15139); conditions: 1 µM, ATP at Km
PKCZETA = PKCZETA (Homo sapiens, UniProt Q05513); conditions: 1 µM, ATP at Km
PRK2 = PRK2 (Homo sapiens, UniProt Q16513); conditions: 1 µM, ATP at Km
PYK2 = PYK2 (Homo sapiens, UniProt Q14289); conditions: 1 µM, ATP at Km
RET = RET (Homo sapiens, UniProt P07949); conditions: 1 µM, ATP at Km
ROCK-I = ROCK-I (Homo sapiens, UniProt Q13464); conditions: 1 µM, ATP at Km
RSE = RSE (Homo sapiens, UniProt Q06418); conditions: 1 µM, ATP at Km
RSK1 = RSK1 (Homo sapiens, UniProt Q15418); conditions: 1 µM, ATP at Km
SGK = SGK (Homo sapiens, UniProt O00141); conditions: 1 µM, ATP at Km
TBK1 = TBK1 (Homo sapiens, UniProt Q9UHD2); conditions: 1 µM, ATP at Km
TRKA = TRKA (Homo sapiens, UniProt P04629); conditions: 1 µM, ATP at Km
TRKB = TRKB (Homo sapiens, UniProt Q16620); conditions: 1 µM, ATP at Km
YES = YES (Homo sapiens, UniProt P07947); conditions: 1 µM, ATP at Km
DCAMKL2 = DCAMKL2 (Homo sapiens, UniProt Q8N568); conditions: 1 µM, ATP at Km
[…] = […] (Homo sapiens, UniProt Q13555); conditions: 1 µM, ATP at Km
CLK3 = CLK3 (Homo sapiens, UniProt P49761); conditions: 1 µM, ATP at Km
VRK2 = VRK2 (Homo sapiens, UniProt Q86Y07); conditions: 1 µM, ATP at Km
PIM-3 = PIM-3 (Homo sapiens, UniProt Q86V86); conditions: 1 µM, ATP at Km
GRK7 = GRK7 (Homo sapiens, UniProt Q8WTQ7); conditions: 1 µM, ATP at Km
ULK3 = ULK3 (Homo sapiens, UniProt Q6PHR2); conditions: 1 µM, ATP at Km
CLK2 = CLK2 (Homo sapiens, UniProt P49760); conditions: 1 µM, ATP at Km
phospho-STAT1^SER727 = test: cells; conditions: Homo sapiens, SW-620, read-out: pSTAT1^SER727 IC50 ± SD

Chain of PKCZETA (Q05513 whole entry): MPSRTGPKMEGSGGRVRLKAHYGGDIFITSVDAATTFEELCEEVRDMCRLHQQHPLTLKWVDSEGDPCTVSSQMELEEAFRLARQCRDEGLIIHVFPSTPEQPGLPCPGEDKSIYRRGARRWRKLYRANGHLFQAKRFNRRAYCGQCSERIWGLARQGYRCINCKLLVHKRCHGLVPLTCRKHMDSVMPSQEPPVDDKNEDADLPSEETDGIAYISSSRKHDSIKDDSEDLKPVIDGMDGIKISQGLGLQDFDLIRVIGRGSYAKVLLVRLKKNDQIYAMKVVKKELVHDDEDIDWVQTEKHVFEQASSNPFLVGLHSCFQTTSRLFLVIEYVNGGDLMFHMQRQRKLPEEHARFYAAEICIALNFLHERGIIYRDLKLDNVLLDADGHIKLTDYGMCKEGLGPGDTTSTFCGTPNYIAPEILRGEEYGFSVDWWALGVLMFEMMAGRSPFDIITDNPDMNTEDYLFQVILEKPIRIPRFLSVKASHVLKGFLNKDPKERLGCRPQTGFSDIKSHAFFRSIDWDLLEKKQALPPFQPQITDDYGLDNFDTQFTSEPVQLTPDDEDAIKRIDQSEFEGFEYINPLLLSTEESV
Chain of EPHA1 (P21709 26-976): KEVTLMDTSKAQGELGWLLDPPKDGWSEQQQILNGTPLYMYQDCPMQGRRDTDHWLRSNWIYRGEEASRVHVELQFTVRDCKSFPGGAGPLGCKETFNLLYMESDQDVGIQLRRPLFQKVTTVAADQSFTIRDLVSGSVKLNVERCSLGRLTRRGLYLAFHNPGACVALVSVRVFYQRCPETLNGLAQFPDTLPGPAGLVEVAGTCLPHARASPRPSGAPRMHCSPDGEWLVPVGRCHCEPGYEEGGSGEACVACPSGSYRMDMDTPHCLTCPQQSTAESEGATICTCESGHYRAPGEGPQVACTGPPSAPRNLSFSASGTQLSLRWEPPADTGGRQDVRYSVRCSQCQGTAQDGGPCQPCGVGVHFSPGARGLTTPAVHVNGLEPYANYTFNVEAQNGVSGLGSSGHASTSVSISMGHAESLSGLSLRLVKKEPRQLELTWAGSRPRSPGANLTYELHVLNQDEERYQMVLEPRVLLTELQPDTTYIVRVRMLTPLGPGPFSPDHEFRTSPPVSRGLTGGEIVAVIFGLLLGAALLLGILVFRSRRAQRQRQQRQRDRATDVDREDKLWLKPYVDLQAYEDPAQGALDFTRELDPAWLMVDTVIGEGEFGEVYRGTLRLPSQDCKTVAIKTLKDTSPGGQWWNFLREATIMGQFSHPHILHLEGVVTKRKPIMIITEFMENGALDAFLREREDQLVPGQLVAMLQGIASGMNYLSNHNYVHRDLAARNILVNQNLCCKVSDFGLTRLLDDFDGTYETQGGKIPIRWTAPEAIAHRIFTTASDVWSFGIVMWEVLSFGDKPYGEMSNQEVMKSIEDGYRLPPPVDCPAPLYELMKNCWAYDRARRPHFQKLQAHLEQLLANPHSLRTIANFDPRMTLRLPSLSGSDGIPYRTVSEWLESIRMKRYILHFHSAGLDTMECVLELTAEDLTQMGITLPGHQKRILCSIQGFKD
Chain of ROCK-I (Q13464 whole entry): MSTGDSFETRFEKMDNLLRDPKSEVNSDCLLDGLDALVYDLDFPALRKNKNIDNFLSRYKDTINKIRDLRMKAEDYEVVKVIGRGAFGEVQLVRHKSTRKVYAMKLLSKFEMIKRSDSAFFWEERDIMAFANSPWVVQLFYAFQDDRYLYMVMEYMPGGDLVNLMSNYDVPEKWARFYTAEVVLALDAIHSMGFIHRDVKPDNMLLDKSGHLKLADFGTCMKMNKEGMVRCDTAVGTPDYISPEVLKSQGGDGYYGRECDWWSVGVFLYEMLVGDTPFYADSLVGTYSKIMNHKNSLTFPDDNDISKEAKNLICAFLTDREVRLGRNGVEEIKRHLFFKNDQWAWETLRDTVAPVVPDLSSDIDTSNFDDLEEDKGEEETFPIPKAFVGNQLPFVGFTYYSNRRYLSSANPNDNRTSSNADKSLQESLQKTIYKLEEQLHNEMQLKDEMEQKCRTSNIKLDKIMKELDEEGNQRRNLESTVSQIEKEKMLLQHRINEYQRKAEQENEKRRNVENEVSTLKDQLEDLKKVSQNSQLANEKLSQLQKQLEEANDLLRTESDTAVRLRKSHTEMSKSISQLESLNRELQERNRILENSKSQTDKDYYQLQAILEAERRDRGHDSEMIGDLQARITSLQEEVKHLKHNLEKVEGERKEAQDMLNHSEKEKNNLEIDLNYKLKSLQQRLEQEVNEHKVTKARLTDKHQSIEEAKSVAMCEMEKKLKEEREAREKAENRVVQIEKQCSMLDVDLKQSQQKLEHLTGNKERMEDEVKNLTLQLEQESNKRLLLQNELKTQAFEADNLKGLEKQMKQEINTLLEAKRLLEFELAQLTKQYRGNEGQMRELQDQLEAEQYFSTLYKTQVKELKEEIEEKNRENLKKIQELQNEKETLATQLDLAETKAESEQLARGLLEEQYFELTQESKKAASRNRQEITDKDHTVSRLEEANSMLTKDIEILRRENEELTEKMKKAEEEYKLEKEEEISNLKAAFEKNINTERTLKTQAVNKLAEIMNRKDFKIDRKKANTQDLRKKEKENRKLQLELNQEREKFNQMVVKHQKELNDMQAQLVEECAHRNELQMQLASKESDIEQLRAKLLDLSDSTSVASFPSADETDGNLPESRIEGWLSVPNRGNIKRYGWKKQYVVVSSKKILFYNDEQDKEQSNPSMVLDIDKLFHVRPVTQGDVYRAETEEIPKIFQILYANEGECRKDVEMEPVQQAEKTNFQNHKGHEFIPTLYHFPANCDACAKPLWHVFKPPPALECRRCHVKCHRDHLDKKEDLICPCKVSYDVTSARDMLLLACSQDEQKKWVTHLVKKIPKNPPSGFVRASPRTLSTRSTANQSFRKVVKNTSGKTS
Chain of TRKB (Q16620 32-822): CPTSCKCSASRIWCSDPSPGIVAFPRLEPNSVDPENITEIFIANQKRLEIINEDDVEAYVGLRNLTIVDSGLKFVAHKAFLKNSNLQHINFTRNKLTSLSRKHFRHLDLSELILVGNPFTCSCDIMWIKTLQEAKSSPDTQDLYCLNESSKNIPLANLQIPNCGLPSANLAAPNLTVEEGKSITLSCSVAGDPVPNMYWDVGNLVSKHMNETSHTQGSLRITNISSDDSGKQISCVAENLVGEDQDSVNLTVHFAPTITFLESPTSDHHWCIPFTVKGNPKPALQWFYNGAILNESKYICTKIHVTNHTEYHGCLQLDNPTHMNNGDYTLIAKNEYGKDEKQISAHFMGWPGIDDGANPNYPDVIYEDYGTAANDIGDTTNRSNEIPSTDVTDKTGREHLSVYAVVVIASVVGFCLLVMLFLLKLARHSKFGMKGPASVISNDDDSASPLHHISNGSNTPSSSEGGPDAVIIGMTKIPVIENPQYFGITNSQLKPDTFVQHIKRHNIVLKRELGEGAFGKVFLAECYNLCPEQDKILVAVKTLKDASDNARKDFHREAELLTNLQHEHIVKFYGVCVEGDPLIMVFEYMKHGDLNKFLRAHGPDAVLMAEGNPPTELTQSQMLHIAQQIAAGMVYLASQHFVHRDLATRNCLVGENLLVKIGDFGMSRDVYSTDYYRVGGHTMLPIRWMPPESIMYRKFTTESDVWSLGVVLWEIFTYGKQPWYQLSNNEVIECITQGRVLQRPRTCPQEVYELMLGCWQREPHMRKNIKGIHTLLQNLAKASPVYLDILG
Chain of EPHB2 (P29323 19-1055): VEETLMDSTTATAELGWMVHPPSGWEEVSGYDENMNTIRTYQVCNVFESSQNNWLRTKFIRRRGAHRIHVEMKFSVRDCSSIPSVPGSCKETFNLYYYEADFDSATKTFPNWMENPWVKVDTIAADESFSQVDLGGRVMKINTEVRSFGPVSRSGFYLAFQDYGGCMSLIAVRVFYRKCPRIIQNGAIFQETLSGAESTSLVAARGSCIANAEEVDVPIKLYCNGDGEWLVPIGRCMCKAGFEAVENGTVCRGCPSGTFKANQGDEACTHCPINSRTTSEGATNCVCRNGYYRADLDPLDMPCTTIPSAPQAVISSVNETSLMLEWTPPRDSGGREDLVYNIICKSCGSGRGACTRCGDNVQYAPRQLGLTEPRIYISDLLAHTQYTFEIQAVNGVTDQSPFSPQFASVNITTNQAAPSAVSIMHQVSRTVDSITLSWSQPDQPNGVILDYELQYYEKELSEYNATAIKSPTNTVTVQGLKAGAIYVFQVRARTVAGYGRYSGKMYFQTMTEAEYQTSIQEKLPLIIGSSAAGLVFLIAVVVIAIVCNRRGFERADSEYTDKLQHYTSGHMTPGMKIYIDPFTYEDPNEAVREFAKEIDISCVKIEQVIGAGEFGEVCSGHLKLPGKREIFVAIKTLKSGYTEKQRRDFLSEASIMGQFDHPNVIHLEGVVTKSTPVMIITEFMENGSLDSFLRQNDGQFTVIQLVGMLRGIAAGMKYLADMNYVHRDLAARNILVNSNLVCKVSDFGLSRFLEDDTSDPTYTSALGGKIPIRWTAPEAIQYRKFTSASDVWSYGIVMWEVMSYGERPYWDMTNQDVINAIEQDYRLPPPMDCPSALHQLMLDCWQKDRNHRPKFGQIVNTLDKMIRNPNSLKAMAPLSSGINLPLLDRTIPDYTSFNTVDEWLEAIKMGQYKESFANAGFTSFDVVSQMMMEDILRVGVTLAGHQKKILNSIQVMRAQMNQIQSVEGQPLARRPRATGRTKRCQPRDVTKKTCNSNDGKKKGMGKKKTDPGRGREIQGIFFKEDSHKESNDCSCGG

`COC1CN(C(=O)c2ccc3c(N)ncc(-c4ccc(-c5cnn(C)c5)cc4)c3n2)C1` [Compound 51] was tested. Which percentage effect (BRSK2) did it give?
The percentage effect was 1%.

And the percentage effect (CAMKIV)?
The percentage effect was -17%.

And the percentage effect (CDK5/P25)?
Its percentage effect is 3%.

What about the percentage effect (CDK7/CYCLINH/MAT1) of the same compound?
Its percentage effect is 20%.

And the percentage effect (CHK1)?
Its percentage effect is -8%.

What about the percentage effect (CK2ALPHA2) of the same compound?
Its percentage effect is 0%.

And the percentage effect (EEF-2K)?
Its percentage effect is 2%.

And the percentage effect (EPHA1)?
The percentage effect was 7%.

And the percentage effect (EPHA2)?
The percentage effect was -12%.

And the percentage effect (EPHA7)?
Its percentage effect is -4%.

And the percentage effect (EPHB2)?
Its percentage effect is 7%.

And the percentage effect (EPHB4)?
Its percentage effect is 8%.

And the percentage effect (ERBB4)?
Its percentage effect is -8%.

And the percentage effect (FGFR3)?
The percentage effect was 7%.

What about the percentage effect (FMS) of the same compound?
Its percentage effect is -37%.

What about the percentage effect (HIPK1) of the same compound?
Its percentage effect is 5%.

And the percentage effect (ITK)?
Its percentage effect is -6%.

And the percentage effect (MAPK2)?
The percentage effect was 6%.

What about the percentage effect (MET) of the same compound?
The percentage effect was 22%.

What about the percentage effect (MKK7BETA) of the same compound?
The percentage effect was 9%.

What about the percentage effect (MST3) of the same compound?
The percentage effect was 7%.

What about the percentage effect (PDK1) of the same compound?
Its percentage effect is -8%.

What about the percentage effect (PKCIOTA) of the same compound?
The percentage effect was -16%.

What about the percentage effect (PKCMU) of the same compound?
Its percentage effect is -3%.

And the percentage effect (PKCZETA)?
The percentage effect was 4%.

And the percentage effect (PRK2)?
Its percentage effect is -3%.

What about the percentage effect (PYK2) of the same compound?
The percentage effect was -4%.

What about the percentage effect (RET) of the same compound?
Its percentage effect is -2%.

And the percentage effect (ROCK-I)?
The percentage effect was 32%.

And the percentage effect (RSE)?
The percentage effect was 17%.

And the percentage effect (RSK1)?
The percentage effect was 13%.

And the percentage effect (SGK)?
Its percentage effect is 14%.

What about the percentage effect (TBK1) of the same compound?
Its percentage effect is -23%.

What about the percentage effect (TRKA) of the same compound?
The percentage effect was -23%.

And the percentage effect (TRKB)?
Its percentage effect is -23%.

And the percentage effect (YES)?
Its percentage effect is -22%.

What about the percentage effect (DCAMKL2) of the same compound?
The percentage effect was 0%.

What about the percentage effect ([…]) of the same compound?
The percentage effect was 5%.

What about the percentage effect (CLK3) of the same compound?
The percentage effect was 2%.

And the percentage effect (VRK2)?
Its percentage effect is 4%.

And the percentage effect (PIM-3)?
Its percentage effect is -9%.

And the percentage effect (GRK7)?
Its percentage effect is 3%.

And the percentage effect (ULK3)?
Its percentage effect is 2%.

What about the percentage effect (CLK2) of the same compound?
Its percentage effect is -18%.

What about the IC50 (phospho-STAT1^SER727) of the same compound?
The IC50 was 17.9 ± 10.6 nM.

With `COC1CN(C(=O)c2ccc3c(N)ncc(-c4ccc(-c5cnn(C)c5)cc4)c3c2)C1` [Compound 59] as the compound, how does the percentage effect (BRSK2) read?
Its percentage effect is 5%.

And the percentage effect (CAMKIV)?
The percentage effect was 23%.

And the percentage effect (CDK5/P25)?
The percentage effect was 11%.

And the percentage effect (CDK7/CYCLINH/MAT1)?
Its percentage effect is -4%.

What about the percentage effect (CHK1) of the same compound?
The percentage effect was -9%.

What about the percentage effect (CK2ALPHA2) of the same compound?
Its percentage effect is 13%.

And the percentage effect (EEF-2K)?
The percentage effect was 8%.

And the percentage effect (EPHA1)?
Its percentage effect is 4%.

And the percentage effect (EPHA2)?
Its percentage effect is 7%.

And the percentage effect (EPHA7)?
The percentage effect was 1%.

And the percentage effect (EPHB2)?
The percentage effect was 24%.

What about the percentage effect (EPHB4) of the same compound?
Its percentage effect is 6%.

What about the percentage effect (ERBB4) of the same compound?
The percentage effect was -34%.

What about the percentage effect (FGFR3) of the same compound?
Its percentage effect is -4%.

What about the percentage effect (FMS) of the same compound?
The percentage effect was -14%.

What about the percentage effect (HIPK1) of the same compound?
The percentage effect was 0%.

And the percentage effect (ITK)?
Its percentage effect is 2%.

And the percentage effect (MAPK2)?
Its percentage effect is -4%.

What about the percentage effect (MET) of the same compound?
Its percentage effect is -19%.

And the percentage effect (MKK7BETA)?
The percentage effect was -23%.

And the percentage effect (MST3)?
Its percentage effect is -34%.

What about the percentage effect (PDK1) of the same compound?
Its percentage effect is -10%.

And the percentage effect (PKCIOTA)?
The percentage effect was 2%.

What about the percentage effect (PKCMU) of the same compound?
Its percentage effect is 10%.

And the percentage effect (PKCZETA)?
The percentage effect was -13%.

What about the percentage effect (PRK2) of the same compound?
Its percentage effect is -11%.

And the percentage effect (PYK2)?
Its percentage effect is -1%.

And the percentage effect (RET)?
The percentage effect was 6%.

And the percentage effect (ROCK-I)?
Its percentage effect is 2%.

And the percentage effect (RSE)?
Its percentage effect is -6%.

What about the percentage effect (RSK1) of the same compound?
Its percentage effect is -14%.

What about the percentage effect (SGK) of the same compound?
The percentage effect was 14%.

And the percentage effect (TBK1)?
The percentage effect was 17%.

What about the percentage effect (TRKA) of the same compound?
The percentage effect was -25%.

What about the percentage effect (TRKB) of the same compound?
The percentage effect was 0%.

What about the percentage effect (YES) of the same compound?
Its percentage effect is -18%.

What about the percentage effect (DCAMKL2) of the same compound?
Its percentage effect is 0%.

What about the percentage effect ([…]) of the same compound?
Its percentage effect is 2%.

And the percentage effect (CLK3)?
Its percentage effect is -19%.

What about the percentage effect (VRK2) of the same compound?
The percentage effect was -3%.

What about the percentage effect (PIM-3) of the same compound?
Its percentage effect is 9%.

What about the percentage effect (GRK7) of the same compound?
The percentage effect was 8%.

What about the percentage effect (ULK3) of the same compound?
The percentage effect was 8%.

And the percentage effect (CLK2)?
Its percentage effect is -3%.

What about the IC50 (phospho-STAT1^SER727) of the same compound?
The IC50 was 114 ± 20.6 nM.
